In patent US11331312B2, “Treatment of H-Ras-driven tumors” (MEMORIAL SLOAN-KETTERING CANCER CENTER, priority 2014, dated 2022):
“Also recorded” adds a separate entry of the source.

Columns and labels:
[1] = Body weight and tolerability of treated mice; format: in vivo, mouse; conditions: 80 mg/kg BID
Description: (§1) The activity of these compounds in vivo was explored. Mice were treated for 2 weeks with tipifarnib or lonafarnib at 80 mg/kg twice daily (drug mixed in 20% beta-cyclodextran and given by gavage). […] Treatment with FTIs was well tolerated in the mice with no significant differences in animal weight between vehicle and drug at 14 days (FIG. 6). Next mice were treated with Tipifarnib or vehicle for an extended time course. Of note, for this experiment tumors in each group were size-matched at the time of treatment initiation (FIG. 8).

[2] = system: Hras-G12V+/+/p53-null thyroid cancers; assay: 2-week FTI treatment of mice with thyroid cancers, tumor volume by 3D ultrasound; format: in vivo, mouse; conditions: 80 mg/kg twice daily by gavage, 2 weeks (14 days)
Description: FIG. 3 is a schematic showing the design of the in vivo study of tipifarnib in Tpo-Cre/FR-Hras^G12V/p53^flox/flox mice. Mice were treated for 14 days with tipifarnib 80 mg/kg BID by gavage. Tipifarnib was prepared in 20% beta-cyclodextran. 3D ultrasound was performed before and after treatment to assess percent change in tumor volume.
Tumors in each treatment group were sized matched at the beginning of therapy.
FIG. 5 is a waterfall plot of the same mice but with an additional cohort of mice treated with lonafarnib added. Of note the lonafarnib treated mice were not size matched to the vehicle group.
as §1

[3] = system: MAPK pathway signaling effectors; assay: Western blots of MAPK pathway signaling effectors in HP-ATC1 mouse cell line; format: cell-based; conditions: HP-ATC1 cells, 1.5% serum, increasing concentrations of drug, Western blot
Description: (§2) FIGS. 2A and B show the results of exposure of mouse cell lines from tumor bearing Tpo-Cre/FR-HrasG12V/p53flox/flox mice to farnesyltransferase inhibitors. Mouse cell lines were generated from tumor bearing Tpo-Cre/FR-HrasG12V/p53flox/flox mice by collagenase/dispase digestion and maintained in Coon's F-12 media with serum. After 15 passages, cells were plated in 1.5% serum and exposed to increasing concentrations of indicated drug. (A) Western blots were performed for indicated proteins (antibodies from Cell Signaling with exception of Hras which was from Santa Cruz).
(§3) Development and characterization of mouse cell lines from TPO-Cre, Hras-G12V+/+, p53f/f mice: In order to study this model in vitro, we developed a mouse cell line (HP-ATC1) from an animal with ATC. The cell line was confirmed to harbor the HrasG12V mutation, and maintained primary tumor characteristics, including its spindle shape and the relative expression of E-cadherin and vimentin through serial passaging (x6-10).
(§4) The FTIs Tipifarnib and Lonafarnib block MAPK signaling and growth of mouse Tpo-Cre, HRas-G12V+/+, p53f/f cell line: There are currently no therapies that directly target oncogenic forms of oncogenic Ras.
(§5) Mouse cell lines were generated from tumor bearing Tpo-Cre/FR-HrasG12V/p53flox/flox mice by collagenase/dispase digestion and maintained in Coon's F-12 media with serum. […]

HP-ATC1 cells = assay: 6 day proliferation assay in HP-ATC1 mouse cell line; format: cell-based; conditions: 1.5% serum, 6 day assay, increasing concentrations of drug
Description: as §2, §3, §4, §5

| Structure (SMILES) | animal weight, drug vs vehicle ([1]; 14 days) | toxicity / tolerability ([1]; two weeks of treatment) | change in thyroid tumor volume (ultrasound) compared to vehicle-treated mice [2] | inhibition of MAPK effector phosphorylation [3] | inhibition of proliferation (HP-ATC1 cells) |
| --- | --- | --- | --- | --- | --- |
| Cn1cncc1[C@@](N)(c1ccc(Cl)cc1)c1ccc2c(c1)c(-c1cccc(Cl)c1)cc(=O)n2C [tipifarnib] | No differences | minimal toxicity | – | – | – |
| NC(=O)N1CCC(CC(=O)N2CCC([C@H]3c4ncc(Br)cc4CCc4cc(Cl)cc(Br)c43)CC2)CC1 [lonafarnib] | – | – | Consistent inhibition of growth; also recorded: Significant reduction in thyroid tumor volume | dose-dependent inhibition | dose-dependent inhibition of proliferation |
